Experiments:
Assay in all cases: relative viability (nuclei count vs DMSO), 5 days (fraction); higher = more cells survive
[1] = compound: O=C(/C=C/c1ccccc1)NC(NC(=S)Nc1cccc2cccnc12)C(Cl)(Cl)Cl [Salubrinal] + COc1cc2c(Oc3ccc(NC(=O)C4(C(=O)Nc5ccc(F)cc5)CC4)cc3F)ccnc2cc1OCCCN1CCOCC1 [Foretinib] (partner 0.25 µM)
Procedure, shortened: (§1)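 Lung cancer cell lines were pin-tool dosed in 1536-well plates on the day after seeding, with either a lone drug or a fixed anchor-drug dose plus five library-drug doses (not always all listed) in √10 steps. Nuclei were counted on 4× images after 5 days. Relative viability is the ratio of treated-well to vehicle-well nuclei counts, with each value a median of duplicate plates.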

[2] = compound: Cc1ccc2nc(NCCN)c3ncc(C)n3c2c1 + O=C(c1cc(Cc2n[nH]c(=O)c3ccccc23)ccc1F)N1CCN(C(=O)C2CC2)CC1 [Olaparib] (partner 8 µM)
Procedure, shortened: as §1

[3] = compound: Cc1ccc2nc(NCCN)c3ncc(C)n3c2c1 + NC(=O)Nc1cc(-c2cccc(F)c2)sc1C(=O)N[C@H]1CCCNC1 [AZD7762] (partner 0.2 µM)
Procedure, shortened: as §1

[4] = compound: O=C(/C=C/c1ccccc1)NC(NC(=S)Nc1cccc2cccnc12)C(Cl)(Cl)Cl [Salubrinal] + C[C@@H](Oc1cc(-c2cnn(C3CCNCC3)c2)cnc1N)c1c(Cl)ccc(F)c1Cl [Crizotinib] (partner 1 µM)
Procedure, shortened: as §1

Cell Line	relative viability ([1]; first compound 0.08 µM)	relative viability ([1]; first compound 0.253 µM)	relative viability ([1]; first compound 0.8 µM)	relative viability ([1]; first compound 2.53 µM)	relative viability ([1]; first compound 8 µM)	relative viability ([2]; first compound 0.04 µM)	relative viability ([2]; first compound 0.1265 µM)	relative viability ([2]; first compound 0.4 µM)	relative viability ([2]; first compound 1.265 µM)	relative viability ([2]; first compound 4 µM)	relative viability ([3]; first compound 0.04 µM)	relative viability ([3]; first compound 0.1265 µM)	relative viability ([3]; first compound 0.4 µM)	relative viability ([3]; first compound 1.265 µM)	relative viability ([3]; first compound 4 µM)	relative viability ([4]; first compound 0.08 µM)	relative viability ([4]; first compound 0.253 µM)	relative viability ([4]; first compound 0.8 µM)	relative viability ([4]; first compound 2.53 µM)	relative viability ([4]; first compound 8 µM)
HCC-827	1.02	1.02	1.07	0.956	1.09	0.689	0.73	0.661	0.639	0.607	0.222	0.265	0.224	0.207	0.18	0.901	0.921	0.992	0.475	0.844
HOP-62	1.07	0.981	1.22	1.08	1.14	0.286	0.457	0.436	0.417	0.42	0.849	0.638	0.528	0.543	0.595	1.04	0.965	1.21	0.914	0.26
LC-2-ad	0.887	0.939	0.919	0.966	0.886	0.729	0.743	0.71	0.768	0.71	0.86	0.806	0.822	0.86	0.795	0.447	0.385	0.537	0.471	0.459
LCLC-97TM1	0.908	0.885	0.862	0.901	1.03	0.491	0.428	0.462	0.417	0.338	0.409	0.321	0.216	0.269	0.225	0.382	0.507	0.446		0.364
LCLC-103H	0.849	0.687	0.818	0.768	0.817	0.752	0.748	0.778	0.743	0.739	0.877	0.821	0.654	0.772	0.752	1.07	1.06	1.05	1.07	0.984
LK-2	0.983	1.18	1.6	1.24	1.09	0.707	0.778	0.706	0.757	0.672	0.393	0.612			0.347	0.249	0.252	0.247	0.218	0.23
LOU-NH91	0.948	1.02	0.957	0.921	0.99	0.921	0.92	0.877	0.868	0.865	0.869	0.789	0.753	0.702	0.733	0.787	0.747	0.74	0.756	0.75
LU99A	0.92	0.802	0.841	0.703	0.789	0.322	0.319	0.288	0.29	0.258	0.485	0.425	0.314	0.286	0.354	0.588	0.635	0.657	0.528	0.5
LXF-289	1.12	0.909	1.01	0.963	0.925	1.16	1.02	1.03	1.13	1.1	1.19	1.1	1.08	1.06	1.12	0.869	0.73	0.818	0.757	0.8
NCI-H23	1.13	0.999	1.08	0.894	0.959	0.37	0.324	0.319	0.276	0.242	0.282	0.297	0.261	0.228	0.22	0.559	0.391	0.621	0.461	0.354
NCI-H322M	1.07	1.07	0.969	0.832	0.856	0.698	0.816	0.881	0.796	0.638	0.446	0.703	0.638	0.552	0.605	0.898	0.901	1.08	0.872	0.944
NCI-H358	0.783	0.597	0.718	0.71	0.606	0.646	0.644	0.603	0.607	0.517	0.51	0.573	0.413	0.515	0.401	0.559	0.553	0.506	0.51	0.478
NCI-H441	1.24	0.917	1.03	0.947	0.862	0.631	0.384	0.622	0.646	0.549	1.35	1.09	1.05	1.25	1.19	0.689	0.665	0.73	0.766	0.652
NCI-H460	1.15	0.987	0.975	1.09	0.914	0.481	0.421	0.443	0.342	0.273	0.614	0.636	0.631	0.7	0.541	1.18	0.891	0.843	0.909	0.541
NCI-H596	0.949	1.17	0.809	0.799	0.701	0.77	0.857	0.771	0.637	0.715	1.07	1.08	1.04	0.915	1.11	1.07	0.901	1.07	1.02	1.05
NCI-H647	1.4	1.2	1.27	1.17	1.12	0.602	0.492	0.517	0.642	0.268	0.44	0.517	0.38	0.574	0.148	1.44	0.891	1	1.12	0.905

Cell Line	relative viability ([1]; first compound 0.08 µM)	relative viability ([1]; first compound 0.253 µM)	relative viability ([1]; first compound 0.8 µM)	relative viability ([1]; first compound 2.53 µM)	relative viability ([1]; first compound 8 µM)	relative viability ([2]; first compound 0.04 µM)	relative viability ([2]; first compound 0.1265 µM)	relative viability ([2]; first compound 0.4 µM)	relative viability ([2]; first compound 1.265 µM)	relative viability ([2]; first compound 4 µM)	relative viability ([3]; first compound 0.04 µM)	relative viability ([3]; first compound 0.1265 µM)	relative viability ([3]; first compound 0.4 µM)	relative viability ([3]; first compound 1.265 µM)	relative viability ([3]; first compound 4 µM)	relative viability ([4]; first compound 0.08 µM)	relative viability ([4]; first compound 0.253 µM)	relative viability ([4]; first compound 0.8 µM)	relative viability ([4]; first compound 2.53 µM)	relative viability ([4]; first compound 8 µM)
NCI-H650	1.06	1.19	1.02	1.1	1.05	0.374	0.364	0.39	0.393	0.399	0.95	0.901	0.681	0.958	1.03	0.701	0.656	0.792	0.637	0.765
NCI-H727	1.09	0.856	1.06	0.778	0.898	0.561		0.731	0.785	0.709	0.611		0.609	0.595	0.573	0.943	0.559	1.03	0.999	0.84
NCI-H838	1.13	1.11	1.06	1.02	1.06	0.791	0.717	0.709	0.759	0.696	1.05	0.932	0.914	0.858	0.874	1.08	0.719	0.854	0.951	0.82
NCI-H1355	1.08	1.01	0.977	0.951	0.883	0.79	0.72	0.754	0.764	0.659	0.75	0.685	0.72	0.644	0.763	1.18	1.12	1.12	1.12	1.03
NCI-H1437	1.3	1.23	1.3	1.25	1.29	0.641	0.613	0.616	0.643	0.553	1.08	1.12	1.16	0.901	1.04	0.975	0.77	1.02	0.909	0.758
NCI-H1651	1.01	0.759	1.02	0.748	0.772	0.178	0.181	0.179	0.18	0.175	0.536	0.511	0.409	0.46	0.445	0.923	0.864	0.925	0.858	0.9
NCI-H1666	0.987	0.924	0.98	0.999	1.01	0.719	0.755	0.751	0.76	0.749	0.903	0.961	0.774	0.756	0.841	1.17	0.852	1.14	0.784	0.94
NCI-H1703	0.319	0.459	0.349	0.354	0.337	0.393	0.362	0.619	0.47	0.437	0.131	0.114		0.111	0.132	0.535		1.06	0.701	0.576
NCI-H1734	0.944	0.774	0.981	0.841	0.779	0.666	0.617	0.658	0.321	0.553	0.573	0.596	0.517	0.559	0.546	0.694	0.774	0.842	0.674	0.772
NCI-H1755	0.95	0.928	0.897	0.911	0.937	0.859	0.878	0.835	0.903	0.791	0.476	0.45	0.492	0.435	0.433	0.991	0.738	1	0.874	0.917
NCI-H1915	1.11	0.932	1.28	1.14	1.08	0.286	0.251	0.242	0.279	0.255	0.646	0.702	0.551	0.728	0.704	0.994	0.643	1.03	0.875	0.836
NCI-H1944	0.871	0.987	0.885	0.913	0.904	0.388	0.387	0.403	0.397	0.388	0.48	0.64	0.456	0.351	0.498	1.22	1.12	1.29	1.08	1.21
NCI-H1975	1.05	0.86	1	0.944	0.923	0.791	0.81	0.809	0.704	0.682	0.791	0.73	0.672	0.66	0.595	1.07	0.722	1.06	0.992	0.816
NCI-H1993	0.818	0.767	0.792	0.736	0.713	1.12	0.962	0.86	0.624	1.06	0.937	0.875	0.554	0.727	0.625	0.795	0.856	0.794	0.909	0.941
NCI-H2085	1.2	0.793	0.894	0.924	1.01	0.813	0.752	0.836	0.803	0.791	1.06	0.996	0.916	0.952	1	0.901	0.804	0.789	0.813	0.834
NCI-H2087	1.12	0.881	1.13	1.36	1.02	0.671	0.522	0.609	0.691	0.589	1.35	1.25	1.27	1.28	1.26	0.984	0.758	0.913	0.867	0.865

From the supplement of paper PMC10307832
